According to patent US6906193B2, “N-type calcium channel antagonists for the treatment of pain” (AstraZeneca AB, priority 2000, dated 2005):
Where two headings read alike, the source gives them in different places.

What was measured:
N-type calcium channel = N-type calcium channel (Homo sapiens, UniProt Q00975); assay: N-channel FLIPR assay; type: cell-based
[1] = system: formalin-induced nocifensive behaviours; assay: Formalin test; type: in vivo, rats; details: Rattus norvegicus, read-out: IPT (Formalin)
Procedure: The Formalin test assesses the inhibitory effects of orally administered N-type calcium channel antagonists on formalin-induced nocifensive behaviours in rats. The formalin test is a well established pain test (Dubuisson and Dennis, 1977; Wheeler-Aceto et al., 1990; Coderre et al., 1993). This test consists of two distinct phases of formalin-induced behaviour. The first phase response, occurring between 0 to 5 minutes, is caused by acute nociception to the noxious chemical (formalin) injected into the paw. This is followed by a quiescent period of between 5 to 15 min post injection. A second phase response, occurring after 15 minutes and lasting up to 60 minutes, is caused by sensitisation of the central neurons in the dorsal horn. Central sensitisation augments the noxious afferent input and a stronger pain barrage is transmitted into the brain. Inhibition of the second phase response is indicative of a central mechanism of drug action.
The procedure for the formalin test is as follows: male rats are placed in a plexiglass chamber and observed for 30-45 min. to observe their baseline activity. Multiple groups of animals are pretreated with either vehicle or different doses of a test compound. Animals are dosed with the drug of interest either 40 min., if by the intraperitoneal route, or 90 min., if by the oral route, prior to injection of formalin into a hind paw (under the dorsal skin; 0.05 mL of sterile 5% formalin). The number of paw flinches and licks during first phase (0-5 min.) and second phase (20-35 min.) are scored and recorded. Flinch and lick responses are calculated as percentage of inhibition compared with the mean score of a saline control group. Drug potencies are expressed as the dose which causes 50% of the maximum inhibitory effect (“ID50”). Student t-tests are used for statistical analysis to determine the significance of drug effects. Compounds are considered active based on their ability to inhibit the flinch response.

pain = details: in vivo; cited from earlier work
L-type calcium channel = assay: L-channel FLIPR assay; type: cell-based, human; details: 5-point concentration-response curves; SK-N-SH cells
Procedure: An immortalized cell line, SK-N-SH, derived from human neuroblastoma cells (ATCC product # HTB-11) was used for all experiments. Cells were grown in T75 flasks containing Eagle's minimum essential medium (MEM) w/Earle's salts, with 0.1 mM non-essential amino acids, 1.0 mM Na pyruvate and 10% fetal bovine serum (FBS; Cat. # SLM-034-B, Specialty Media). Cells were grown to 100% confluency (by visual microscopic estimation) before sub-culture. Cells were sub-cultured at a ratio of 1:3 by first rinsing with 3 mL PBS, replacing the PBS with PBS containing 0.25% trypsin until the cells detached from the surface. 1 mL of the resulting suspension was then added to a new flask containing 10 mL fresh media. Cells were then incubated (37° C., 5% CO2), and media was exchanged about 3 days after subculturing.
Cells used for experiments were at the 100% confluency growth stage. Each flask provided enough cells for three 96-well plates. […]
Maximum signal (L-channel+non-specific): 12 wells received 20 μL buffer addition only (no nitrendipine) in the first solution addition sequence to define the maximal K^+-evoked Ca^2+ increase mediated by L-channels+non-specific (non-L-channel mediated fluorescence increase). The coefficient of variation amongst these wells for the K^+-evoked peak increase in fluorescence units was typically less than 12%. […]

N-type calcium channel, sequence (Q00975 whole entry): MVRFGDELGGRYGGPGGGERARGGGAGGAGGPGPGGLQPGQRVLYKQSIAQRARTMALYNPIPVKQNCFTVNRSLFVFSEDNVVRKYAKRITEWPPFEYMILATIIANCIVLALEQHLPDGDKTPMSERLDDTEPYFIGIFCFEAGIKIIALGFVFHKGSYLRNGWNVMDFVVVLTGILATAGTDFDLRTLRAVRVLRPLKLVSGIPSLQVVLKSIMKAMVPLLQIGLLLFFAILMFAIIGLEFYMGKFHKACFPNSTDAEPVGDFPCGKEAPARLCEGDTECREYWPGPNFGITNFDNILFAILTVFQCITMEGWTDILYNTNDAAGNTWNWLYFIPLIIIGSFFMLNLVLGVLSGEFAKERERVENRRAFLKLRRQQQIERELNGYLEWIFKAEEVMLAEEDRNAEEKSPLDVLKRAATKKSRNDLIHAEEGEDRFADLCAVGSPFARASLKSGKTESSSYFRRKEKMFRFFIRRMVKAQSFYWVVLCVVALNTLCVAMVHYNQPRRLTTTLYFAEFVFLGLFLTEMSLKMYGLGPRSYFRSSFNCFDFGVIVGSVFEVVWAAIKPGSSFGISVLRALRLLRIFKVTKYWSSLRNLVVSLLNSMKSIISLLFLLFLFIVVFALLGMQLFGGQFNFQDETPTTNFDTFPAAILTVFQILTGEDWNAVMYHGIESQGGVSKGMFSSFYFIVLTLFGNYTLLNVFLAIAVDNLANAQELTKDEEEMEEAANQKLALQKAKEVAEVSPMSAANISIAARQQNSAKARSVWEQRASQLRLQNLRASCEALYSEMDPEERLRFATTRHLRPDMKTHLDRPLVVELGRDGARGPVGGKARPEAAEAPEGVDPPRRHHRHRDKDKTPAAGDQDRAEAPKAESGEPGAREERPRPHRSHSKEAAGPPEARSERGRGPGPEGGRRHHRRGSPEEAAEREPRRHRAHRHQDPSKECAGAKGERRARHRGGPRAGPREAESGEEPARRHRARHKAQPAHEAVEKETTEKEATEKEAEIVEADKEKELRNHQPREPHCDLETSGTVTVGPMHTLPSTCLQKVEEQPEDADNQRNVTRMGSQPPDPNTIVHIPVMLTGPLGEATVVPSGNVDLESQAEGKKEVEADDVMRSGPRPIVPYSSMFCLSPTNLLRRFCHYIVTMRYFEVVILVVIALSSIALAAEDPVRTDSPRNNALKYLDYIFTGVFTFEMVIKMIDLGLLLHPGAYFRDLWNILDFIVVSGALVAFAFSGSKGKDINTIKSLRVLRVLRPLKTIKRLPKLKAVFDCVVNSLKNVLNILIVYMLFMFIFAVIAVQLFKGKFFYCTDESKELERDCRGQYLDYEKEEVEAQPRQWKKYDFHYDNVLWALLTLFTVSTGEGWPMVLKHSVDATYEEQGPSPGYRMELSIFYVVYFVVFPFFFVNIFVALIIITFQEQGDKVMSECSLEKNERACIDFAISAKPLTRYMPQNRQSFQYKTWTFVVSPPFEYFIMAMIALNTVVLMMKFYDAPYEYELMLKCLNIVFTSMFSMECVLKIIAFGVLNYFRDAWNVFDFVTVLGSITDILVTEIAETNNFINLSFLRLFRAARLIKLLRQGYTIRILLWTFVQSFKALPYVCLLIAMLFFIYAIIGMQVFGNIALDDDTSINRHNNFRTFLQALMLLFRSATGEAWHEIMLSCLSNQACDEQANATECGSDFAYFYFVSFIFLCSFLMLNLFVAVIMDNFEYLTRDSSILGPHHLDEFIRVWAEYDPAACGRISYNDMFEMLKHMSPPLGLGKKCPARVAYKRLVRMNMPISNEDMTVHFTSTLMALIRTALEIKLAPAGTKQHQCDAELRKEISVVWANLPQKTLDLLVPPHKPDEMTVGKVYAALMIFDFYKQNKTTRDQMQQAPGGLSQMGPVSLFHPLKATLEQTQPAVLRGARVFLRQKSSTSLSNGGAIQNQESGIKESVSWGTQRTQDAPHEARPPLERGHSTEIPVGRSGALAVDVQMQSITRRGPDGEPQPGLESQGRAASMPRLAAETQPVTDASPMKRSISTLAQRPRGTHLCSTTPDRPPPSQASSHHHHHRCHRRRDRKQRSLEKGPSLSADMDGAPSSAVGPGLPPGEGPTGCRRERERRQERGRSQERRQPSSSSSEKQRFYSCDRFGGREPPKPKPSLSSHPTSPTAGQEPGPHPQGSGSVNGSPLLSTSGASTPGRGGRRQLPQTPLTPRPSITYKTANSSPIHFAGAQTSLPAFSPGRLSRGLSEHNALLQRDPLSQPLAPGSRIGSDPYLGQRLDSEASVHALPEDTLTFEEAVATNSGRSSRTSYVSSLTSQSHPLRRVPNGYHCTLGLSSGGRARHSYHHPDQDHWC
N-type calcium channel, sequence (P54289 25-956 partner limits assumed): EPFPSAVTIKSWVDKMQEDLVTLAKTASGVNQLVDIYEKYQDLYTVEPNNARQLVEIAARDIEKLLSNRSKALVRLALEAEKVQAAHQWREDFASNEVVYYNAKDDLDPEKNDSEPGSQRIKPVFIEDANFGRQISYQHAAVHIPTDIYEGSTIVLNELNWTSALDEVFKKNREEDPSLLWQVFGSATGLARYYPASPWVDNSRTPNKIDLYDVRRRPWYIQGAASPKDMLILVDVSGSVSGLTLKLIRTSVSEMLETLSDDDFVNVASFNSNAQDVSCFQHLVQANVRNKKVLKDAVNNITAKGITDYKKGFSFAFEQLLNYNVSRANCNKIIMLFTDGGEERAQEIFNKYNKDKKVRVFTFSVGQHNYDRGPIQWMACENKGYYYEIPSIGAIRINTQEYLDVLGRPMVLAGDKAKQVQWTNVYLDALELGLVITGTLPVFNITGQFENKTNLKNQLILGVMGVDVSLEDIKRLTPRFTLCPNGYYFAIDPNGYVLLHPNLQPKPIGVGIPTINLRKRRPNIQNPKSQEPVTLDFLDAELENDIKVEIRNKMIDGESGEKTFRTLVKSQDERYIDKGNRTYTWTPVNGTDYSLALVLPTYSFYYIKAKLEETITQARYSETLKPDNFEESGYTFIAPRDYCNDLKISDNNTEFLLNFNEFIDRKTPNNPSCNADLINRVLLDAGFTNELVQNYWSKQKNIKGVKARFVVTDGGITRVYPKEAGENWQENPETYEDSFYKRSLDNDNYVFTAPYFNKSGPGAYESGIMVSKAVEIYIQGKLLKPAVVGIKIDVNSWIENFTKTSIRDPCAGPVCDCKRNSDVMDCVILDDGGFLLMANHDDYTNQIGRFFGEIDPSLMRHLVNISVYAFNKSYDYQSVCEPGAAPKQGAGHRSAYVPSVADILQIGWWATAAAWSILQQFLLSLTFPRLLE
N-type calcium channel, sequence (P54289 957-1103 partner limits assumed): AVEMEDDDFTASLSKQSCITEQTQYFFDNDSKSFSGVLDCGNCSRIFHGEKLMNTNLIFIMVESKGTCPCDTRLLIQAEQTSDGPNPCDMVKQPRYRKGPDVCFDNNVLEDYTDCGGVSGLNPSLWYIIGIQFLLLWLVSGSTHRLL
N-type calcium channel, sequence (Q02641 whole entry partner): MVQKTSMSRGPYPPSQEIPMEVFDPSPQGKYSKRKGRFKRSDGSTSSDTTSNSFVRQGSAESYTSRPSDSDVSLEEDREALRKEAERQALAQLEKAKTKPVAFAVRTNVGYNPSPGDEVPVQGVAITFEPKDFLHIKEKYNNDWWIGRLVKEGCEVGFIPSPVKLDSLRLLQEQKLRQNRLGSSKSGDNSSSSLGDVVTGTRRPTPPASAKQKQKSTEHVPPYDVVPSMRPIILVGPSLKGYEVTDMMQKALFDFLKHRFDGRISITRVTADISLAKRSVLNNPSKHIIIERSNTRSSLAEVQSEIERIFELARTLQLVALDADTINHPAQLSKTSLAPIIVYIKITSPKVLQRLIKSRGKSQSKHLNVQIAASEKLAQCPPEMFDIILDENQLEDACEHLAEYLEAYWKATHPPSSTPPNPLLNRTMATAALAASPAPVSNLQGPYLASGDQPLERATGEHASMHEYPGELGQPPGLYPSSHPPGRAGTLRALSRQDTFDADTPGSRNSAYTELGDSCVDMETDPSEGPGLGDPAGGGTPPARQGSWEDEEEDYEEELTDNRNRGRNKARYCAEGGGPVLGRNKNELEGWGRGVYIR

Row | Molecule | IC50 (N-type calcium channel) | other results
1 | CC(C)(C)c1cc(N)c2ccccc2n1 [Example 35, 2-tert-butyl-4-quinolinamine] | > 10 µM | 
2 | CN(C)c1cc(-c2cccc(F)c2)nc2ccccc12 [Example 11, 2-(3-fluorophenyl)-N,N-dimethyl-4-quinolinamine] | 3 µM | inhibition in vivo at 30 mg/kg ([1]; ip, 30 mg/kg, i.p., rats): 64%
3 | Cc1cccc(-c2cc(N)c3ccccc3n2)c1 [Example 37, 2-(3-methylphenyl)-4-quinolinamine] | 1.2 µM | inhibition in vivo at 30 mg/kg ([1]; ip, 30 mg/kg, i.p., rats): 47%; inhibition in vivo at 30 mg/kg ([1]; po, 30 mg/kg, p.o., rats): 13%
4 | O=C(O)c1cc(-c2ccc(F)cc2)nc2ccccc12 [Example 8, 2-(4-fluorophenyl)-4-quinolinecarboxylic acid] | > 10 µM | 
5 | COc1ccc(-c2cc(N)c3ccccc3n2)cc1 [Example 5, 2-(4-methoxyphenyl)-4-quinolinamine] | 4.8 µM | 
6 | CC(=O)Nc1cc(/C=C/c2cccc(F)c2)nc2ccccc12 [Example 17, N-{2-[(E)-2-(3-fluorophenyl)ethenyl]-4-quinolinyl}acetamide] | 6.4 µM | 
7 | Nc1ccc2nc(/C=C/c3ccccc3)cc(N)c2c1 [Example 24, 2-[(E)-2-phenylethenyl]-4,6-quinolinediamine] | 5.4 µM | 
8 | Cc1ccc(-c2cc(C(=O)O)c3ccccc3n2)cc1 [Example 7, 2-(4-methylphenyl)-4-quinolinecarboxylic acid] | > 10 µM | 
9 | CCc1c(-c2ccccc2)nc2ccccc2c1C(=O)O [Example 23, 3-ethyl-2-phenyl-4-quinolinecarboxylic acid] | > 10 µM | 
10 | CNc1cc(-c2cccc(F)c2)nc2ccccc12 [Example 10, 2-(3-fluorophenyl)-N-methyl-4-quinolinamine] | 1.6 µM | inhibition in vivo at 30 mg/kg ([1]; ip, 30 mg/kg, i.p., rats): 77%; inhibition in vivo at 30 mg/kg ([1]; po, 30 mg/kg, p.o., rats): 46%
11 | Nc1cc(-c2cccs2)nc2ccccc12 [Example 14, 2-(2-thienyl)-4-quinolinamine] | 5.4 µM | inhibition in vivo at 30 mg/kg ([1]; ip, 30 mg/kg, i.p., rats): 25%
12 | conotoxin MVIIA |  | success rate for the treatment of pain (pain): ~85%
13 | Nc1c2c(nc3ccccc13)-c1ccccc1CCC2 [Example 34, 6,7-dihydro-5H-benzo[6,7]cyclohepta[1,2-b]quinolin-8-amine] | 0.9 µM | 
14 | COc1ccc2nc(-c3ccccc3)cc(C(=O)O)c2c1 [Example 21, 6-methoxy-2-phenyl-4-quinolinecarboxylic acid] | > 10 µM | 
15 | CCc1c(-c2ccccc2)nc2ccccc2c1N [Example 29, 3-ethyl-2-phenyl-4-quinolinamine] | 1.2 µM | 
16 | Cc1c(-c2ccccc2)nc2ccccc2c1N [Example 16, 3-methyl-2-phenyl-4-quinolinamine] | 3.6 µM | inhibition in vivo at 30 mg/kg ([1]; ip): 91%; inhibition in vivo at 30 mg/kg ([1]; po): 11%
17 | COc1cccc2c(C(=O)O)cc(-c3ccccc3)nc12 [Example 4, 8-methoxy-2-phenyl-4-quinolinecarboxylic acid] | > 10 µM | 
18 | CC(=O)Nc1cc(/C=C/c2ccccc2)nc2ccccc12 [Example 12, N-{2-[(E)-2-phenylethenyl]-4-quinolinyl}acetamide] | 5 µM | 
19 | Cc1cc(C)c2c(N)cc(-c3ccccc3)nc2c1 [Example 19, 5,7-dimethyl-2-phenyl-4-quinolinamine] | 1.5 µM | 
20 | Cc1ccc(-c2cc(N)c3ccccc3n2)cc1 [Example 32, 2-(4-methylphenyl)-4-quinolinamine] | 3.1 µM | 

Row | Molecule | IC50 (N-type calcium channel) | other results
21 | Nc1ccc2nc(/C=C/c3cccc(F)c3)cc(N)c2c1 [Example 25, 2-[(E)-2-(3-fluorophenyl)ethenyl]-4,6-quinolinediamine] | 3.8 µM | 
22 | CCOC(=O)C1=C(C)NC(C)=C(C(=O)OC)C1c1cccc([N+](=O)[O-])c1 (stereo not shown) [nitrendipine] |  | IC50 (L-type calcium channel): 30 nM
23 | O=C(O)c1cc(-c2ccc(Cl)cc2)nc2ccccc12 [Example 2, 2-(4-chlorophenyl)-4-quinolinecarboxylic acid] | > 10 µM | 
24 | Cc1cccc(-c2cc(C(=O)O)c3ccccc3n2)c1 [Example 33, 2-(3-methylphenyl)-4-quinolinecarboxylic acid] | > 10 µM | 
25 | Nc1cc(-c2ccc(Cl)cc2)nc2ccccc12 [Example 36, 2-(4-chlorophenyl)-4-quinolinamine] | 5.5 µM | 
26 | COc1cccc2c(N)cc(-c3ccccc3)nc12 [Example 26, 8-methoxy-2-phenyl-4-quinolinamine] | 5 µM | 
27 | Nc1cc(-c2cccc(F)c2)nc2ccccc12 [Example 9, 2-(3-fluorophenyl)-4-quinolinamine] | 2.1 µM | inhibition in vivo at 30 mg/kg ([1]; ip, 30 mg/kg, i.p., rats): 90%; inhibition in vivo at 30 mg/kg ([1]; po, 30 mg/kg, p.o., rats): 41%
28 | COc1ccc2nc(-c3ccccc3)cc(N)c2c1 [Example 22, 6-methoxy-2-phenyl-4-quinolinamine] | ~3 µM | inhibition in vivo at 30 mg/kg ([1]; ip, 30 mg/kg, i.p., rats): 16%
29 | Nc1cc(/C=C/c2ccccc2)nc2ccccc12 [Example 13, 2-[(E)-2-phenylethenyl]-4-quinolinamine] | 1.4 µM | 
30 | Cc1cccc2c(N)cc(-c3ccccc3)nc12 [Example 20, 8-methyl-2-phenyl-4-quinolinamine] | 3.1 µM | 
31 | Nc1cc(-c2ccc(F)cc2)nc2ccccc12 [Example 30, 2-(4-fluorophenyl)-4-quinolinamine] | 3.4 µM | 
32 | O=C(O)c1cc(-c2ccccc2F)nc2ccccc12 [Example 28, 2-(2-fluorophenyl)-4-quinolinecarboxylic acid] | > 10 µM | 
33 | Nc1cc(-c2ccccc2F)nc2ccccc12 [Example 31, 2-(2-fluorophenyl)-4-quinolinamine] | 8 µM | 
34 | Cc1c(-c2ccccc2)nc2ccccc2c1C(=O)O [Example 15, 3-methyl-2-phenyl-4-quinolinecarboxylic acid] | > 10 µM | 
35 | COc1ccc(-c2cc(C(=O)O)c3ccccc3n2)cc1 [Example 1, 2-(4-methoxyphenyl)-4-quinolinecarboxylic acid] | > 10 µM | 
36 | Nc1ccc2nc(-c3ccccc3)cc(N)c2c1 [Example 3, 2-phenyl-4,6-quinolinediamine] | 3.5 µM | inhibition in vivo at 30 mg/kg ([1]; ip, 30 mg/kg, i.p., rats): 45%; inhibition in vivo at 30 mg/kg ([1]; po, 30 mg/kg, p.o., rats): 28%
37 | Nc1c2c(nc3ccccc13)-c1ccccc1CC2 [Example 27, 5,6-dihydrobenzo[c]acridin-7-amine] | 1.1 µM | inhibition in vivo at 30 mg/kg ([1]; ip, 30 mg/kg, i.p., rats): 50%
38 | Nc1cc(/C=C/c2cccc(F)c2)nc2ccccc12 [Example 18, 2-[(E)-2-(3-fluorophenyl)ethenyl]-4-quinolinamine] | 4.3 µM | inhibition in vivo at 30 mg/kg ([1]; ip, 30 mg/kg, i.p., rats): 19%
39 | Nc1cc(-c2ccccc2)nc2ccccc12 [Example 6, 2-phenyl-4-quinolinamine] | 4.4 µM | inhibition in vivo at 30 mg/kg ([1]; ip, 30 mg/kg, i.p., rats): 88%
